According to paper PMC6021502, “Cannabigerol Action at Cannabinoid CB1 and CB2 Receptors and at CB1–CB2 Heteroreceptor Complexes” (Frontiers in Pharmacology, 2018):

Tests used:
SNAP-CB2R [1] = molecular target: T1, SNAP-CB2R (Homo sapiens, UniProt P34972); test: Homogeneous HTRF competition binding in living HEK-293T cells (fluorophore-conjugated CM-157); conditions: living HEK-293T cells expressing SNAP-CB2R, 20 nM fluorescent ligand
T1 construct: host or cells: HEK-293T, transient transfection (PEI)
T1 sequence (P34972 whole entry): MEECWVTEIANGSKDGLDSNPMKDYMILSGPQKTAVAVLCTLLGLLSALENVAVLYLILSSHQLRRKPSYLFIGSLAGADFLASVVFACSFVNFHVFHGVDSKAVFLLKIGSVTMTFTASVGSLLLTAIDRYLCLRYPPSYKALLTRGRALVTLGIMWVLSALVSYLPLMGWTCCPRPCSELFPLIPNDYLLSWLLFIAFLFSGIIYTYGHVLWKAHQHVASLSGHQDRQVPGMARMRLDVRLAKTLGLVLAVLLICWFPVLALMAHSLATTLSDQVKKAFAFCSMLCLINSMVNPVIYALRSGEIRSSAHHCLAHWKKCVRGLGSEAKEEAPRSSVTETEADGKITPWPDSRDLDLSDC

[2] = molecular target: T2, CB2R in a CB1–CB2 receptor heteromer context (Homo sapiens, UniProt P34972); test: Homogeneous HTRF competition binding in living HEK-293T cells expressing SNAP-CB2R and CB1R; conditions: 20 nM fluorescent ligand, read-out: Ki, HTRF competition of fluorophore-conjugated CM-157 in the presence of CB1R
T2 construct: host or cells: HEK-293T, transient co-transfection (PEI)
T2 sequence (P34972 whole entry): as above
T2 sequence (P21554 whole entry partner): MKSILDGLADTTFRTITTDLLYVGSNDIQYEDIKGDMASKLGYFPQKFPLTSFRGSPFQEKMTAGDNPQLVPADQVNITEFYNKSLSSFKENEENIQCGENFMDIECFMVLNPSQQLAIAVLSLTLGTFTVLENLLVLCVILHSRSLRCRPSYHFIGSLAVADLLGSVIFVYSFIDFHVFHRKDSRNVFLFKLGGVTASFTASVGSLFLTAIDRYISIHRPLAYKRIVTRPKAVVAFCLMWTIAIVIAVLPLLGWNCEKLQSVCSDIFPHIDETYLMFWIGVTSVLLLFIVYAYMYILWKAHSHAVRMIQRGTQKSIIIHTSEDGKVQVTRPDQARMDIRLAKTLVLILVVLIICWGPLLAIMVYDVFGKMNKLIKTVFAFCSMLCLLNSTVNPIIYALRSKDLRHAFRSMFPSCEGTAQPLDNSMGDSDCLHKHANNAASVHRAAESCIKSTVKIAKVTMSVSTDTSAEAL

SNAP-CB2R [3] = molecular target: T1, SNAP-CB2R; parameters: method as in Martínez-Pinilla et al., 2016; conditions: HTRF binding to CB2R; ref Martínez-Pinilla et al., 2016; read-out: KD used in the Cheng and Prusoff equation for homogeneous binding; cited from earlier work

Question: For `CC(C)(C)c1nc2cc(S(=O)(=O)c3ccnc(OCCCN)c3)ccc2n1CC1CCOCC1` [CM-157, 3-[[4-[2-tert-butyl-1-(tetrahydropyran-4-ylmethyl)benzimidazol-5-yl]sulfonyl-2-pyridyl]oxy]propan-1-amine, reference compound], which Ki (SNAP-CB2R [1]) is on record?
Answer: The Ki was 16 nM.

Question: What about the Ki [2] of the same compound?
Answer: The Ki was 19 nM.

Question: What about the Kd (SNAP-CB2R [3]) of the same compound?
Answer: Its Kd is 21 nM.
